Structures are written as SMILES.

The target of assay [1] is T1, MAK (Homo sapiens, UniProt P20794).
T1 sequence (P20794 1-623): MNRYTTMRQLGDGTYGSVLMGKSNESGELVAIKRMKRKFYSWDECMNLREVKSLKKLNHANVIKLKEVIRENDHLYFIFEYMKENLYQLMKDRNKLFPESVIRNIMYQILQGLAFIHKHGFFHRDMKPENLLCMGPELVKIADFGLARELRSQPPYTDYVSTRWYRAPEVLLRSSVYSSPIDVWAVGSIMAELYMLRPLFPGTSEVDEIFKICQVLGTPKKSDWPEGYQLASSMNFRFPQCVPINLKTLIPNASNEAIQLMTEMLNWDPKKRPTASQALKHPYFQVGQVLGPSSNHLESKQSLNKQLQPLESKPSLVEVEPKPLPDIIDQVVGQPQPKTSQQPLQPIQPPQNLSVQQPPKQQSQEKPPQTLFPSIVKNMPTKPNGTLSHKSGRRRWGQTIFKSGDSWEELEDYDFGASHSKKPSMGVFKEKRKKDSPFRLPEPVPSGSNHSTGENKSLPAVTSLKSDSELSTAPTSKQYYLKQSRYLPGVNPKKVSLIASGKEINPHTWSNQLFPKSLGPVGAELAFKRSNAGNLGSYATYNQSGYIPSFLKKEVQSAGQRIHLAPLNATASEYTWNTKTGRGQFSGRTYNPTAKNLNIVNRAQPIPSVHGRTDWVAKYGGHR
In words: biochemical. The following applies: read-out: % enzyme activity, 1 μM; Run 1, Run 2.

Assay [2] has as its target T2, PKCmu/PRKD1 (Homo sapiens, UniProt Q15139).
T2 sequence (Q15139 1-912): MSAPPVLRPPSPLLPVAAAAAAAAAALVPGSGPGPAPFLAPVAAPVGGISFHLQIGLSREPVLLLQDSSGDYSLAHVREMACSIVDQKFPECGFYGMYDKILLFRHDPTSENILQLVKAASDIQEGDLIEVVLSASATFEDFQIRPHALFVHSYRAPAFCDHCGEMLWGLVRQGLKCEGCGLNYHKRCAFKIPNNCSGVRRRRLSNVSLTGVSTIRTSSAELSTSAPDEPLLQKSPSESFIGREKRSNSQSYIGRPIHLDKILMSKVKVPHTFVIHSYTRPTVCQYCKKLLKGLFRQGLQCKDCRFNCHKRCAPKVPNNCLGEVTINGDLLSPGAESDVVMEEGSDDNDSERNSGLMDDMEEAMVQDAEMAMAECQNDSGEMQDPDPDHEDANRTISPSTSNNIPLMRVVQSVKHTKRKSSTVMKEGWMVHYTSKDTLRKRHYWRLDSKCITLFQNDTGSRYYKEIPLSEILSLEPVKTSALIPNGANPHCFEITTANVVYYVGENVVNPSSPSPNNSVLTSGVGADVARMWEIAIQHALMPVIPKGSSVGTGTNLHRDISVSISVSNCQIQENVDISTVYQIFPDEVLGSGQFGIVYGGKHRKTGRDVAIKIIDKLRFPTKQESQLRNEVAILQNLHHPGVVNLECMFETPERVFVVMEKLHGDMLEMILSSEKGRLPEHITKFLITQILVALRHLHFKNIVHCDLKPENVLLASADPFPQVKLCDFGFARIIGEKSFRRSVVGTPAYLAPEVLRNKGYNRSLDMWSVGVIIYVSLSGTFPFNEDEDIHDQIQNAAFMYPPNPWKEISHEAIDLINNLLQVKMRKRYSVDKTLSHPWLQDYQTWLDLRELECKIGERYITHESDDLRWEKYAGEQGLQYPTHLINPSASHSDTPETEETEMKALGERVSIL
In words: biochemical. The following applies: read-out: % enzyme activity, 1 μM; Run 1, Run 2.

For assay [3], the target named is T3, EPHA3 (Homo sapiens, UniProt P29320).
T3 sequence (P29320 21-983): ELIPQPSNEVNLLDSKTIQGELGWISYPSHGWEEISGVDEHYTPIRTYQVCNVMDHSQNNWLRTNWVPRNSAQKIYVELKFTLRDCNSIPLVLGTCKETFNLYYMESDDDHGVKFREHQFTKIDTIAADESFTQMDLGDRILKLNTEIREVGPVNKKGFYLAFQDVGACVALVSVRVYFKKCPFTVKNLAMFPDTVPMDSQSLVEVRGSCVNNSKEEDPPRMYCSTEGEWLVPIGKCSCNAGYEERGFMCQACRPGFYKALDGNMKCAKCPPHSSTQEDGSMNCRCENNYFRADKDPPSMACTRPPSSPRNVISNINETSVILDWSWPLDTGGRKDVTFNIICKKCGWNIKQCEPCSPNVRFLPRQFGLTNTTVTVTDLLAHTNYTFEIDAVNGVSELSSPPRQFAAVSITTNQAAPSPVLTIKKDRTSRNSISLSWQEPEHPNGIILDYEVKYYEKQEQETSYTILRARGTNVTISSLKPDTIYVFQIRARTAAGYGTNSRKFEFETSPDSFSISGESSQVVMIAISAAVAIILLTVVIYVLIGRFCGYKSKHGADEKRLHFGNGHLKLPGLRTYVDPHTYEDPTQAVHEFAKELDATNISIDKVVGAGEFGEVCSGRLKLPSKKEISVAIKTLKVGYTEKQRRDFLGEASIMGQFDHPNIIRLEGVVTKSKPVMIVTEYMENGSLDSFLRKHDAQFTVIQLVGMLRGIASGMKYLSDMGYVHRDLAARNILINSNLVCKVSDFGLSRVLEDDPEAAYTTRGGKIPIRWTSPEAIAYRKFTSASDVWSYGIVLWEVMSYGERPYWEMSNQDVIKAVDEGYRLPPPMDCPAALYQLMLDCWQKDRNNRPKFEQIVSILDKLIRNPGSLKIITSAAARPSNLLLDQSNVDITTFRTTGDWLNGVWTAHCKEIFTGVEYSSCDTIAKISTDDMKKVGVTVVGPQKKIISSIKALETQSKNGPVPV
As to conditions: 1 μM; Run 1, Run 2.

The target in assay [4] is FGFR1 (Homo sapiens, UniProt P11362). Put plainly: biochemical. As to conditions: read-out: % enzyme activity, 1 μM; Run 1, Run 2.
Assay [5] concerns the target LRRK2 (Homo sapiens, UniProt Q5S007). As to conditions: 1 μM; Run 1, Run 2.
For assay [6], the target named is WEE1 (Homo sapiens, UniProt P30291). The following applies: 1 μM; Run 1, Run 2.
Assay [7] deals with TIE2/TEK (Homo sapiens, UniProt Q02763). The following applies: 1 μM; Run 1, Run 2.
In assay [8] the target is DMPK2 (Homo sapiens, UniProt Q6DT37). Put plainly: biochemical. As to conditions: read-out: % enzyme activity, 1 μM; Run 1, Run 2.
The target of assay [9] is PLK3 (Homo sapiens, UniProt Q9H4B4). Put plainly: biochemical. As to conditions: read-out: % enzyme activity, 1 μM; Run 1, Run 2.
Chain of PLK3 (Q9H4B4 whole entry): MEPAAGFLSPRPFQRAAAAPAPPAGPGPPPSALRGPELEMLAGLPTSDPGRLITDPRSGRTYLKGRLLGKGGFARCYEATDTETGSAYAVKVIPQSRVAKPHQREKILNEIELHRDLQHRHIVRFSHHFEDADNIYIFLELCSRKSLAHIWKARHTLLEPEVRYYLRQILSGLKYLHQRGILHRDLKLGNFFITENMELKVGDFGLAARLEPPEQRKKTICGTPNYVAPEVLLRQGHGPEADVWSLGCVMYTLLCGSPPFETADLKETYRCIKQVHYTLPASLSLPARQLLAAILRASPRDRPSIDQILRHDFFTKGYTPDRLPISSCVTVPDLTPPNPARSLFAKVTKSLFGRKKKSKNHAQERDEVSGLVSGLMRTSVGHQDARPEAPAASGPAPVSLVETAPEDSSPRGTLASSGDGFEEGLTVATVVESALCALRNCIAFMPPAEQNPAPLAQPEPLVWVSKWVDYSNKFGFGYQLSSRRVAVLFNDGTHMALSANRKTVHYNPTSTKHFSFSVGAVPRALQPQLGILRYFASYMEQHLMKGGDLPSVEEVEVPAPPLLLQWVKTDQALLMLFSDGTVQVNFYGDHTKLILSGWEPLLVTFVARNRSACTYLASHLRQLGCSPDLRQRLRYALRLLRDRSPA

Chain of FGFR1 (P11362 22-822): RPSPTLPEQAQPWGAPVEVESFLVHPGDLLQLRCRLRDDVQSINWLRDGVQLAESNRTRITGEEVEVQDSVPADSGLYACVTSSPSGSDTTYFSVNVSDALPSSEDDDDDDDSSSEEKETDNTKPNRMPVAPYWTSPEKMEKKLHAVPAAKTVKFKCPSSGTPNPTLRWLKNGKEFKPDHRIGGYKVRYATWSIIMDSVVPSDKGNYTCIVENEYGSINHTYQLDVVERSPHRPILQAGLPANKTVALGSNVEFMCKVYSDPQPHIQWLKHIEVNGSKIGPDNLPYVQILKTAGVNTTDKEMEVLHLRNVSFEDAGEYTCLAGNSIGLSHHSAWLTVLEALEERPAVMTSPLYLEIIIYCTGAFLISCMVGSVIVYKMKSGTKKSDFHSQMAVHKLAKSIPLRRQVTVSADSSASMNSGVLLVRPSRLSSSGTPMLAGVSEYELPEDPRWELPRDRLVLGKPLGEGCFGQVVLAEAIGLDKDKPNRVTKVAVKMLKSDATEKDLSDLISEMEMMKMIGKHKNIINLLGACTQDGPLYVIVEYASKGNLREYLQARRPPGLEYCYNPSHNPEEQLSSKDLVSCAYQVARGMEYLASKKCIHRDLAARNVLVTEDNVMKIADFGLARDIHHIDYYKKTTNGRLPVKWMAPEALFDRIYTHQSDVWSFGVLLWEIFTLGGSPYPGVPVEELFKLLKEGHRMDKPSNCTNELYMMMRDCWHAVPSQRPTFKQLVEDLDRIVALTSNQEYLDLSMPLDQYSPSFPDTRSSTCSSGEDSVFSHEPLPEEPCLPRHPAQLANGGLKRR
Chain of WEE1 (P30291 whole entry, species assumed): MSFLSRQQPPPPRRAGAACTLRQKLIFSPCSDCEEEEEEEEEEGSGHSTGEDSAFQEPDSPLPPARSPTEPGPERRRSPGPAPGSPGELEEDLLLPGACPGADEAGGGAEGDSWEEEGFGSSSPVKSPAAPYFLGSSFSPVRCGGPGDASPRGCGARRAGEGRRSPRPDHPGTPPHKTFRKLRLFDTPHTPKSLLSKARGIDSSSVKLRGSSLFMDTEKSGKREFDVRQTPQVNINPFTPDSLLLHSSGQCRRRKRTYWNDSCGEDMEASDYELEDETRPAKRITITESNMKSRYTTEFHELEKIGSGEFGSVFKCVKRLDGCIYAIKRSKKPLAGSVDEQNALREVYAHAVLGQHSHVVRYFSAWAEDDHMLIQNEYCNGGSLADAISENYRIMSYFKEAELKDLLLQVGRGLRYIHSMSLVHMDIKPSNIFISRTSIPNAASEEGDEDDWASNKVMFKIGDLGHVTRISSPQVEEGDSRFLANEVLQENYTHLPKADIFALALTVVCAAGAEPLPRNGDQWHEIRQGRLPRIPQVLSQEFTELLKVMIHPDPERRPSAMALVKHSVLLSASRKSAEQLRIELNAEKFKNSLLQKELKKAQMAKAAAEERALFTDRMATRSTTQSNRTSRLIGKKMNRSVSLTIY
Chain of LRRK2 (Q5S007 whole entry): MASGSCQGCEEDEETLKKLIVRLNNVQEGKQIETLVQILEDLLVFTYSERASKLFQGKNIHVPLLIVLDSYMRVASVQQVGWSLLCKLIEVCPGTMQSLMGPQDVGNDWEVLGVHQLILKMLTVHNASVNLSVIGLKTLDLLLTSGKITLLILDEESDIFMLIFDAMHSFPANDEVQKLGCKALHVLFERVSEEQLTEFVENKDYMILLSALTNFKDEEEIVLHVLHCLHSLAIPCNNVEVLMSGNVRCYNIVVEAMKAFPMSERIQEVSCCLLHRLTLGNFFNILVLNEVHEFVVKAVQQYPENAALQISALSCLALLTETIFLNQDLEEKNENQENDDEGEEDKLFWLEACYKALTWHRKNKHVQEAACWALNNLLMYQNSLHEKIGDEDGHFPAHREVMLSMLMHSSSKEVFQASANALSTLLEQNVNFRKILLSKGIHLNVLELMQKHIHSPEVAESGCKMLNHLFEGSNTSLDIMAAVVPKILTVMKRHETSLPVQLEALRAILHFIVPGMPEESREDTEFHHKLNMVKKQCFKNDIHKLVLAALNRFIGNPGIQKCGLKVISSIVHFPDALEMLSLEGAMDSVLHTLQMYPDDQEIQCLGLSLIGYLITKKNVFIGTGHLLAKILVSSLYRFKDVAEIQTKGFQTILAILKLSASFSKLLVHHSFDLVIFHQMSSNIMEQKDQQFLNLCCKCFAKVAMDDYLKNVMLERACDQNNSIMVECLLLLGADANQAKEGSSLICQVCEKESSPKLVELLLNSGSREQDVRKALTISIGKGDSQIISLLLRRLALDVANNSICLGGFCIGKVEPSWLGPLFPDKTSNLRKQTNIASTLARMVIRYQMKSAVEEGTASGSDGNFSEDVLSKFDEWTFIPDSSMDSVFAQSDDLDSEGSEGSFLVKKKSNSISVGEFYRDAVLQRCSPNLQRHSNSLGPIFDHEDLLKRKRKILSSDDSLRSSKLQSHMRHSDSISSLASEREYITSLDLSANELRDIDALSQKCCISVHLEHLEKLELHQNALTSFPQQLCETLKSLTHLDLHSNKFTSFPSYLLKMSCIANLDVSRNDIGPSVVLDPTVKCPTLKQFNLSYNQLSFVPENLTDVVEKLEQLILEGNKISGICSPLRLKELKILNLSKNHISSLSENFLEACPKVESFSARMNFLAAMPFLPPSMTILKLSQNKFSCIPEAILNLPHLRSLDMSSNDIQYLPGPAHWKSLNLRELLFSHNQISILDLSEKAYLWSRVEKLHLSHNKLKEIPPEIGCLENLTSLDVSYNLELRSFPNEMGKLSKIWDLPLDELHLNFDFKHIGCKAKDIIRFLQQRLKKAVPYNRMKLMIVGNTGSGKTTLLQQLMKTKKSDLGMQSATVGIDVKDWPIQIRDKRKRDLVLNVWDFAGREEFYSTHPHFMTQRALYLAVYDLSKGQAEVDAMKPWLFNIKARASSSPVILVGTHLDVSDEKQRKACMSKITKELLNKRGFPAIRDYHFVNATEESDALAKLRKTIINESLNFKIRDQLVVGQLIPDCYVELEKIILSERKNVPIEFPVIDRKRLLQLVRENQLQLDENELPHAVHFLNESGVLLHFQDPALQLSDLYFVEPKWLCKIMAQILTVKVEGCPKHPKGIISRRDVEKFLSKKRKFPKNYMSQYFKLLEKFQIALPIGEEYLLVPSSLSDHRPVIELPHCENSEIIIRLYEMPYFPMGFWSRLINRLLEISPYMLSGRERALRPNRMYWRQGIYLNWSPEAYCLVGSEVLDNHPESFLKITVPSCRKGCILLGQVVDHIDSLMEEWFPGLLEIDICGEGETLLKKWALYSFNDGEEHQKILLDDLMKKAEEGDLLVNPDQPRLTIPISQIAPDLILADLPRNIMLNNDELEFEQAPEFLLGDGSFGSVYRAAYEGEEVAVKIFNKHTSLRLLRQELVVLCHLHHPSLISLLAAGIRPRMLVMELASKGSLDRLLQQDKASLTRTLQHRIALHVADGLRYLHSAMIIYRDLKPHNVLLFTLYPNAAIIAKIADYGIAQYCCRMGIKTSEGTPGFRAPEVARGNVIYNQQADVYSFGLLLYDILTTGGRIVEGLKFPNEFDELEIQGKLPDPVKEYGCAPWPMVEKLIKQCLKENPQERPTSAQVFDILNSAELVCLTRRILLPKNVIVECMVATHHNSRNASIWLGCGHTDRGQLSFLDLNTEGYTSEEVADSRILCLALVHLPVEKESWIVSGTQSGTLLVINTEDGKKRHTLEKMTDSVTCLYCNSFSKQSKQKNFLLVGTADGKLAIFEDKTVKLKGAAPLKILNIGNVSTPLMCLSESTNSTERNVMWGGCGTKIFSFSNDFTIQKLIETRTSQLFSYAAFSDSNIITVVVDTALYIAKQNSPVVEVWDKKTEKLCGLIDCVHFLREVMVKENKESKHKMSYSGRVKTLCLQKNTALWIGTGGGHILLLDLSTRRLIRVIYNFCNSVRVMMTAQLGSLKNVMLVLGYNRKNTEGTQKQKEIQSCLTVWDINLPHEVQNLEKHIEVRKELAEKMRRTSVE

As to `COc1cc(-c2cncc(-c3ccc(N4CCN(C)CC4)cc3)c2C)cc(F)c1C(N)=O` [Compound 26a, 2-Fluoro-6-methoxy-4-(4-methyl-5-(4-(4-methylpiperazin-1-yl)phenyl)pyridin-3-yl)benzamide], the remaining activity at 1 µM in assay [1] worked out at 99.2%; in assay [2], 90.1%; in [4] it was 97.4%; in assay [8], 83.8%; in assay [9], 95%. Further, the “% enzyme activity” value in [3] is 94.70%; in assay [5], 59.73%; in [6], 104.15%; in assay [7], 92.85%.

In the case of `COc1cc(-c2cncc(-c3ccc(N4C[C@@H](C)N(C)[C@@H](C)C4)cc3)c2C)cc(F)c1C(N)=O` [Compound 26c, 2-Fluoro-6-methoxy-4-(4-methyl-5-(4-((3R,5S)-3,4,5-trimethylpiperazin-1-yl)phenyl)pyridin-3-yl)benzamide], the remaining activity at 1 µM in assay [1] was 119%; in assay [2], 97.6%; in assay [4], 101%; in [8], 87.5%; in assay [9], 97.7%. For the same compound, the “% enzyme activity” value in [3] was 98.11%; in assay [5], 77.27%; in [6], 99.73%; in [7] it was 92.15%.

The values above are taken from article PMC8213057, “Targeting ALK2: An Open Science Approach to Developing Therapeutics for the Treatment of Diffuse Intrinsic Pontine Glioma” (Journal of Medicinal Chemistry, 2020).
